Experimental findings from patent publication US20200325156A1, “HETEROARYL AMIDE COMPOUNDS, PREPARATION METHOD THEREFOR, PHARMACEUTICAL COMPOSITIONS THEREOF, AND APPLICATIONS THEREOF” (Rui Jin Hospital Affiliated to Shanghai Jiao Tong …, priority 2017, published 2020) are described below.

Each structure is given as a SMILES string.

One may read the inhibition as the change of the read-out against control, counted positive when it falls. One may read the IC50 as the point on the concentration scale where inhibition reaches its midpoint. Higher therefore signals weaker potency in that assay.

Common to all, as to assay type: cell-based
The subject of test [1] is human osteosarcoma cells U2OS. The test can be described thus: MTS cell growth inhibition, U2OS. To be noted: for inhibition at 10 µM / IC50: Homo sapiens, U2OS, 48 h, MTS; for inhibition at 10 µM: compound concentration 10 μM, read-out: Inhibition rate against U2OS at 10 μM (%); for IC50: growth inhibition; for growth inhibitory activity on U2OS (in words): summary of Tables 3 and 4. On the procedure: (§1) 1) Medium: DMEM (Dulbecco's modified eagle medium) or RPMI1640 (containing 10% fetal bovine serum, 100 μg/mL ampicillin, 100 μg/mL streptomycin).
(§2) 2) Reagent: MTS reaction solution (containing 2 mg/mL of MTS (3-(4,5-dimethylthiazol-2-yl)-5-(3-carboxymethoxyphenyl)-2-(4-sulfophenyl)-2H-tetrazolium, inner salt); 100 μg/mL PES ([…])).
(§3) Human promyelocytic leukemia cells HL-60 (2×10^4 cells/well) cultured in vitro were incubated into a 96-well culture plate, the volume of cell-culture medium was 90 μL, and then 10 μL of the compound at each gradient concentration was added (the highest concentration was 10 μM, which was diluted stepwise by ⅓, and 8 concentration points were set in total; the system contained 0.1% DMSO (dimethyl sulfoxide)). The cell plate with uniformly mixed compound was cultured in a cell culture incubator (37° C.; 5% CO2) for 48 h, then 20 μμL of MTS reaction solution was added, uniformly mixed and incubated in the cell culture incubator (37° C.; 5% CO2) for 1-4 hr; OD values at 490 nm were measured by a microplate reader (VARIOSKAN FLASH, Thermo). Three parallels were set in each group of experiments, with 0.1% (a final concentration) DMSO as a negative control, and a medium without cells and compounds as a blank control. The cell growth inhibition rate was calculated by the following formula:
(§4) Cell growth inhibition rate%=1−(ODexperimental group−ODblank group)/(ODnegative group−ODblank group)×100%
(§5) 4) IC50 calculation: The semi-inhibitory concentration of the compound acting on cell was calculated using GradPad Prism 5 software according to the measured cell growth inhibition rate.
(§6) Human lung cancer cells A549, human gastric cancer cells BGC-823, human liver cancer cells HepG-2 and human breast cancer cells MCF-7, human osteosarcoma cells U2OS, human prostate cancer cells LNCAP cultured in vitro were added in a 96-well culture plate at 1,000-10,000 cells/well, incubated until adherence, and then the compound was added. As to other procedures, please refer to the method (1) above.

For test [2], the system named is Human promyelocytic leukemia cells HL-60. The test can be described thus: MTS cell growth inhibition, HL-60. To be noted: for inhibition at 10 µM / IC50: Homo sapiens, HL-60, 48 h, MTS; for inhibition at 10 µM: compound concentration 10 μM, read-out: Inhibition rate against HL-60 at 10 μM (%); for IC50: growth inhibition; for growth inhibitory activity on HL-60 (in words): summary of Tables 3 and 4. The protocol:
as §1, §2, §3, §4, §5

The subject of test [3] is human prostate cancer cells LNCAP. The experiment in a line: MTS cell growth inhibition, LNCAP. To be noted: for inhibition at 10 µM / IC50: Homo sapiens, LNCaP, 48 h, MTS; for inhibition at 10 µM: compound concentration 10 μM, read-out: Inhibition rate against LNCAP at 10 μM (%); for IC50: growth inhibition; for growth inhibitory activity on LNCAP (in words): summary of Tables 3 and 4. The protocol:
as §1, §2, §3, §4, §5, §6

The subject of test [4] is human breast cancer cells MCF-7. The experiment in a line: MTS cell growth inhibition, MCF-7. Conditions: MCF7, compound concentration 10 μM, 48 h, read-out: Inhibition rate against MCF-7 at 10 μM (%). The protocol:
as §1, §2, §3, §4, §5, §6

For test [5], the system named is Human lung cancer cells A549. The test can be described thus: MTS cell growth inhibition, A549. Conditions: compound concentration 10 μM, 48 h, MTS, read-out: Inhibition rate against A549 at 10 μM (%). The protocol: as §1, §2, §3, §4, §5, §6
Test [6] relates to human liver cancer cells HepG-2. The test can be described thus: MTS cell growth inhibition, HepG-2. To be noted: 48 h; for inhibition at 10 µM: HepG2, compound concentration 10 μM, read-out: Inhibition rate against HepG-2 at 10 μM (%); for IC50: HepG2, growth inhibition. On the procedure: as §1, §2, §3, §4, §5, §6
Test [7] deals with human gastric cancer cells BGC-823. The test can be described thus: MTS cell growth inhibition, BGC-823. Conditions: 48 h; for inhibition at 10 µM: compound concentration 10 μM, read-out: Inhibition rate against BGC-823 at 10 μM (%); for IC50: growth inhibition. On the procedure: as §1, §2, §3, §4, §5, §6

In the case of `O=C(Nc1ccc(OC(F)(F)F)cc1)c1cc2scnc2[nH]1` [Compound I-6], the inhibition at 10 µM worked out at 56.2% in test [1]; 69.1% in test [2]; 55.8% in test [3]; 3.4% in test [4]; 6.3% in test [5]; 66.5% in test [6]. Also, the inhibition at 10 µM in test [7] came out at 64.5%. Also, the IC50 in test [1] was 929 nM; in test [2], 217 nM; in test [3], 319 nM; in test [6], 1980 nM; in test [7], 582 nM.
Turning to `COC(=O)c1ccc(NC(=O)c2cc3scnc3[nH]2)cc1` [Compound I-8], the inhibition at 10 µM in test [1] came out at 50.9%; in test [2], 69.4%; in test [4], 21.2%; in test [5], 56.8%; in test [6], 58.1%; in test [7], 72.2%. For the same compound, the figures for the IC50 in test [1], in test [2] and in test [3] were 6350 nM, 1780 nM and 6040 nM, respectively.
As to `O=C(Nc1ccc(C(F)(F)F)cc1)c1cc2scnc2[nH]1` [Compound I-11], the inhibition at 10 µM in test [1] stood at 56.2%; in test [2] it was 71.2%; in test [3], 56.1%; in test [4], 7.4%; in test [5] it was 7.6%; in test [6] it was 62.9%. Also, in test [7], the inhibition at 10 µM was determined as 58.8%. The IC50 stood at 1510 nM in test [1]; 653 nM in test [2]; 5260 nM in test [3]; 1470 nM in test [6]; 849 nM in test [7].
`COc1ccc(NC(=O)c2cc3scnc3[nH]2)cc1` [Compound I-12]: the inhibition at 10 µM in test [1] stood at 57.7%; in test [2] it was 68.9%; in test [3] it was 54.6%; in test [4] it was 5.9%; in test [5] it was 9.3%; in test [6], 58.3%. Besides, the inhibition at 10 µM in test [7] stood at 47.4%. The IC50 was found to be 1520 nM in test [1]; 590 nM in test [2]; 6310 nM in test [3]; 223 nM in test [6]; 952 nM in test [7].
For `CN(C)c1ccc(NC(=O)c2cc3scnc3[nH]2)cc1` [Compound I-13], the inhibition at 10 µM in test [1] is 53.2%; in test [2], 69.7%; in test [3] it was 48.6%; in test [4], below 0%; in test [5], 3.4%; in test [6], 54.7%. For the same compound, the inhibition at 10 µM in test [7] amounted to 54.3%. Further, the IC50 in test [1] was 2680 nM; in test [2], 1300 nM; in test [3], above 10000 nM; in test [6], 1930 nM; in test [7], 1110 nM.
With `CCN(CC)c1ccc(NC(=O)c2cc3scnc3[nH]2)cc1` [Compound I-15], the inhibition at 10 µM is 53.5% in test [1]; 63.2% in test [2]; 23.8% in test [4]; 69.4% in test [5]; 57.8% in test [6]; 71.7% in test [7]. The IC50 in test [1] is above 10000 nM; in test [2] it was 2710 nM; in test [3] it was above 10000 nM.
As for `O=C(Nc1ccc([N+](=O)[O-])cc1)c1cc2scnc2[nH]1` [Compound I-16], the inhibition at 10 µM in test [1] amounted to 40.2%; in test [2] it was 44.6%; in test [3] it was 58%; in test [4], 17.6%; in test [5], 32.4%; in test [6], 38.6%. The inhibition at 10 µM in test [7] is 63.3%.
As for `O=C(NCc1ccccc1-c1ccncc1)c1cc2scnc2[nH]1` [Compound I-22], the inhibition at 10 µM in test [1] amounted to 50%; in test [2], 65.2%; in test [3] it was 64.3%; in test [4], 15.1%; in test [5], 54.8%; in test [6] it was 48.9%. Also, the inhibition at 10 µM in test [7] was 64.6%. Further, the IC50 is 3660 nM in test [1], 672 nM in test [2] and 2570 nM in test [3].
`O=C(NCc1ccccc1-c1cccnc1)c1cc2scnc2[nH]1` [Compound I-23]: the inhibition at 10 µM amounted to 56% in test [1]; 70.5% in test [2]; 64.4% in test [3]; 27% in test [4]; 53.4% in test [5]; 60.4% in test [6]. Also, the inhibition at 10 µM in test [7] is 71.1%. Besides, the values for the IC50 in test [1], in test [2] and in test [3] were 2920 nM, 475 nM and 1580 nM, respectively.
On to `O=C(NCc1ccccc1-c1ccsc1)c1cc2scnc2[nH]1` [Compound I-24], for which the inhibition at 10 µM in test [1] was determined as 37.6%; in test [2], 64.3%; in test [3], 48.7%; in test [4] it was 31.5%; in test [5] it was 20.1%; in test [6], 38.2%. For the same compound, the inhibition at 10 µM in test [7] stood at 51.2%. The values for the IC50 in test [1], in test [2] and in test [3] were 2750 nM, 2300 nM and 849 nM, respectively.
Take `O=C(NCc1ccccc1-c1ccco1)c1cc2scnc2[nH]1` [Compound I-26]: the inhibition at 10 µM in test [1] is 44.5%; in test [2], 64.8%; in test [3], 44.9%; in test [4], 3.1%; in test [5] it was below 0%; in test [6] it was 29.7%. Besides, the inhibition at 10 µM in test [7] amounted to 23.4%. Moreover, the IC50 in test [1] was 6170 nM; in test [2], 3210 nM; in test [3] it was 163 nM.
Consider `O=C(NCc1ccccc1-c1ccoc1)c1cc2scnc2[nH]1` [Compound I-27], for which the inhibition at 10 µM in test [1] worked out at 44.9%; in test [2] it was 68.8%; in test [4], 1.7%; in test [5], 67.9%; in test [6], 43.2%; in test [7], 55.1%. The IC50 in test [1] stood at 6 nM; in test [2] it was 0.012 nM; in test [3], 32 nM. In addition, the “growth inhibitory activity on U2OS (in words)” value in test [1] was “relatively good growth inhibitory activity”. For the same compound, the “growth inhibitory activity on HL-60 (in words)” value in test [2] was “relatively good growth inhibitory activity”. In addition, the “growth inhibitory activity on LNCAP (in words)” value in test [3] is reported as “relatively good growth inhibitory activity”.
Turning to `O=C(NCc1ccccc1-c1cc2ccccc2o1)c1cc2scnc2[nH]1` [Compound I-28], the inhibition at 10 µM in test [1] is 48.7%; in test [2], 74.8%; in test [3], 71%; in test [4] it was 21%; in test [5] it was 50.3%; in test [6] it was 44.4%. Besides, the inhibition at 10 µM in test [7] was 60.3%. For the same compound, the IC50 in test [1] came to 928 nM; in test [2], 5 nM; in test [3], 130 nM. For the same compound, the “growth inhibitory activity on U2OS (in words)” value in test [1] is recorded as “relatively good growth inhibitory activity”. In addition, in test [2], the “growth inhibitory activity on HL-60 (in words)” value is recorded as “relatively good growth inhibitory activity”. Also, the “growth inhibitory activity on LNCAP (in words)” value in test [3] is listed as “relatively good growth inhibitory activity”.
As for `CSc1ccc(OCc2cccc(NC(=O)c3cc4scnc4[nH]3)c2)cc1` [Compound I-31], the inhibition at 10 µM in test [1] is 54.9%; in test [2], 71.8%; in test [3], 59.3%; in test [4], 13.9%; in test [5], below 0%; in test [6], 18.5%. The inhibition at 10 µM in test [7] was determined as 20.4%. The IC50 in test [1] turned out to be 8920 nM; in test [2] it was 491 nM; in test [3], 2600 nM.
